Legend:
D-Apt49 [1] = assay: Redox-mediated catalytic cyclic voltammetry titration with aptamer; type: binding
Protocol: (§1) All experiments were performed in 5 mM Tris buffer (pH 7) containing 10 mM MgCl2 and 50 mM NaCl (Recognition Buffer, RBr). The L-Tym concentration is always 5 µM. For cyclic voltammetric experiments, 1 µM [Os(bpy)3]2+ with 5 µM 1-Tym in a droplet of 50 µL RBr was used. So, before each experiment, the droplet is shaking with a micropipette. This procedure is repeated until we obtain a reproducible and stable voltammogram. Mother solution of Fc-1-Tym was a […] solution in DMF. This product is conserved at 4°C and seal with parafilm. Before each experiment, this solution is diluted 10 times in stabilized DMF, such as 0.2 µL in 50 µL of RBr leads to 5 µM of Fc-1-Tym.
(§2) Cyclic voltammetry measurements were performed with an AUTOLAB PGSTAT 12 potentiostat/galvanostat controlled by computer, and the data were acquired using GPES 4.9007 software (EcoChemie, The Netherlands). Small self-contained electrochemical cells made of 3 screen-printed electrodes on a flat substrate were used for all experiments. The electrodes were printed using a DEK model-65 screen-printer. Working electrodes were 4 mm diameter screen-printed carbon electrodes prepared using a commercial carbon ink (Electrodag PF-470 A) deposited on the top of an underlying Ag layer (Electrodag 418 SS). Counter electrode was obtained using an Ag ink (Electrodag 418 SS).
(§3) Before experiments, the screen-printed carbon electrodes were coated with bovine serum albumin (BSA) by immersing the electrodes in a 1 mg/mL BSA solution for 10 minutes at room temperature. The BSA-modified electrodes were next cycled between 0 V and 0.8 V at v = 0.05 V/s, until of the capacitive background current in cyclic voltammetry was stablized.
The 49-mer aptamer we have used (see here above) is a sequence similar to the one that was previously selected by Vianini et al and successfully applied to chromatographic- and fluorescence-based L-Tym assays. Since direct electrochemical oxidation of phenolic compounds generally leads to electrode passivation and thus to poorly reproducible anodic peak current in cyclic voltammetry (CV), the electrochemical detection of L-Tym was performed by redox-mediated catalytic oxidation of the phenolic function. For such a purpose, we have used the one-electron redox mediator couple [Os^III/II(bpy)3]^3+/2+ which, according to its relatively high standard potential (E^0=+0.58 V vs. Ag/AgCl), is capable to efficiently catalyze the oxidation of phenolic compounds. [drawing 51]
The linear dependence of the peak current with both the square root of scan rate, v, and L-Tym concentration, indicates conditions of total catalysis for which the catalytic peak current response, ip, can be expressed by eq 1. ip = 0.609nFSCT^0 sqrt(DT)sqrt(fv/RT) [formula] where n is the number of electron involved in the catalytic reaction, F the Faraday constant, S the electrode area, C^0T the bulk concentration of L-Tym, and DT the diffusion coefficient of L-Tym. After aptamer addition, the binding reaction (eq 2) is rapidly set at equilibrium. [drawing 53] with Kd the dissociation constant. On the basis of a classical law of action mass and mass balance (i.e., C^0T = CT + CRT, with CT and CRT the free and receptor-bound target concentrations), and assuming a 1:1 binding stoichiometry, the free (χƒ) mole fraction of target in the bulk solution can thus be estimated by eq 3. χf = (CT)/(CT^0) = 1-(Kd + CT^0 + CR^0 -sqrt(((Kd+CT^0+CR^0))^2 -4CT^0 CR^0))/(2CT^0) [formula]
Here, C^0R is the total concentration of the aptamer receptor added to the solution. Under the assumption of a slow interconversion of free and bound target on the time scale of CV experiments, the catalytic peak current can thus be expressed by a linear combination of the catalytic currents related to the free and bound target through eq 4. ip = 0.609nFSCT^0 sqrt(fv/RT)[χfsqrt(DT)+(1-χf)sqrt(DRT)] [formula] where DT and DRT are the diffusion coefficients of the free and receptor-bound target, respectively. […]

[2] = tested on: 49-mer scramble oligonucleotide; assay: Redox-mediated catalytic cyclic voltammetry titration with random DNA control; type: binding; conditions: random sequence with the same GC ratio
Protocol: 2-Amino-1,3-propanediol hydrochloride (Aldrich), 2-amino-1,3-propanediol (Aldrich), NaCl (Fluka), MgCl2 (Sigma), 1-tyrosinamide (Aldrich), d-tyrosinamide (Millegen, France), paracetamol (Aldrich) and tyrosine (Sigma), triphenylphosphine (Aldrich), diethylazidocarboxylate solution (DEAD) (Aldrich), and ferrocene methanol (Aldrich) were used without further purification. All syntheses were performed with freshly distilled solvents (THF and MeOH). The oligonucleotides (1-DNA and d-DNA) were synthesized and HPLC-purified by Eurogentec (Anger, France) and their concentration was controlled by UV-Vis spectroscopy using a Nanodrop 2000 spectrophotometer (ThermoFisher). The oligonucleotides sequences were: • Apt49-T: (SEQ ID NO: 1) 5'-[…] ― 3' • Scramble: (SEQ ID NO: 2) 5'- […] ― 3'
as §1, with “Before each experiment, this solution is diluted 10 times in stabilized DMF, such as 0.2 µL in 50 µL of RBr leads to 5 µM of Fc-1-Tym.” left out

D-Apt49 [3] = assay: Homogeneous electrochemical competitive binding assay in Tris buffer; conditions: 5 µM Fc-L-Tym, K^*d fixed at 1.2 µM
Protocol: as §1, §2, §3
The competitive assay can be described by the two equilibrated binding reactions 6a and 6b, in which Fc-L-Tym is L-tyrosinamide labeled by a redox-active ferrocene group. The ferrocenyl label was here incorporated on the ―OH position of the phenolic group (Scheme 1). Note that under this condition the catalytic oxidation of the phenolic residue is no more possible and only the ferrocene labeled molecule can be detected. [drawing 63] [drawing 64] with Kd = (CTCR)/CRT [formula] Kd^(*) = (CT^(*)CR)/CRT^(*) [formula] where CR is the concentration of free aptamer receptor. […] Ideally, the two binding constants should be as close as possible (Kd ≈ K^*d). The value of K^*d was determined by monitoring in CV the reversible response of 5 µM Fc-L-Tym solution as a function of increasing concentrations of D-Apt49.
The competitive binding assay was achieved from two separate solutions containing a starting mixture of 5 µM Fc- L-Tym and 3 µM or 10 µM D-Apt49, and to which an increasing amount of L-Tym was added. […]

[4] = molecular target: anti-L-tyrosinamide aptamer; conditions: previously determined by isothermal titration calorimetry; cited from earlier work

For `NC(=O)[C@@H](N)Cc1ccc(O)cc1` [L-Tym, L-tyrosinamide], the Kd (D-Apt49 [1]; 5 µM target, 1 µM [Os(bpy)3]2+, 5 mM Tris buffer pH 7.0, 50 mM NaCl, 10 mM MgCl2, nonlinear fit of eq 5) was 2.9 ± 0.3 µM, the “DRT (diffusion coefficient of the receptor-bound target)” value (D-Apt49 [1]; L-Tym bound to D-Apt49, assuming one electron exchanged) was 1.4 × 10^-6 cm^2 s^-1 and the “DT (diffusion coefficient of the free target)” value (D-Apt49 [1]; free L-Tym, assuming one electron exchanged) was 7 × 10^-6 cm^2 s^-1. The “current response when the aptamer was replaced by a 49-mer random DNA sequence” value [2] was “no significant current response decrease”, the Kd (D-Apt49 [3]; 3 µM D-Apt49, Tris buffer) was 2.8 ± 0.4 µM and the Kd (D-Apt49 [3]; 10 µM D-Apt49, Tris buffer) was 2.2 ± 0.6 µM. The Kd [4] was 1.75 to 3.2 µM.

Source: patent publication EP2657347A1, “Electrochemical competitive assay and use thereof” (Université Paris Diderot - Paris 7, priority 2012, dated 2013)
